Reference: PubChem BioAssay (NCI)
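The compound was tested at five concentrations on cells cultured in 96-well plates, with a 48-hour exposure period. At the GI50, growth is halved. At the TGI there is no net growth.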

Key:
Experiment in all cases: NCI-60 cell line screen, 48 h
786-0 renal = system: 786-0 renal
A498 renal = system: A498 renal
A549 NSCLC = system: A549 NSCLC
ACHN renal = system: ACHN renal
BT-549 breast = system: BT-549 breast
CAKI-1 renal = system: CAKI-1 renal
CCRF-CEM leukemia = system: CCRF-CEM leukemia
COLO 205 colon = system: COLO 205 colon
DU-145 prostate = system: DU-145 prostate
EKVX NSCLC = system: EKVX NSCLC
HCC-2998 colon = system: HCC-2998 colon
HCT-116 colon = system: HCT-116 colon
HCT-15 colon = system: HCT-15 colon
HL-60(TB) leukemia = system: HL-60(TB) leukemia
HOP-62 NSCLC = system: HOP-62 NSCLC
HOP-92 NSCLC = system: HOP-92 NSCLC
HS 578T breast = system: HS 578T breast
HT29 colon = system: HT29 colon
IGROV1 ovarian = system: IGROV1 ovarian
K-562 leukemia = system: K-562 leukemia
KM12 colon = system: KM12 colon
LOX IMVI melanoma = system: LOX IMVI melanoma
M14 melanoma = system: M14 melanoma
MALME-3M melanoma = system: MALME-3M melanoma
MCF7 breast = system: MCF7 breast
MDA-MB-231 breast = system: MDA-MB-231 breast
MDA-MB-435 = system: MDA-MB-435
MOLT-4 leukemia = system: MOLT-4 leukemia
NCI-H226 lung = system: NCI-H226 lung
NCI-H23 lung = system: NCI-H23 lung
NCI-H460 lung = system: NCI-H460 lung
NCI-H522 lung = system: NCI-H522 lung
NCI/ADR-RES ovarian = system: NCI/ADR-RES ovarian
OVCAR-3 ovarian = system: OVCAR-3 ovarian
OVCAR-4 ovarian = system: OVCAR-4 ovarian
OVCAR-5 ovarian = system: OVCAR-5 ovarian
OVCAR-8 ovarian = system: OVCAR-8 ovarian
PC-3 prostate = system: PC-3 prostate
RPMI-8226 leukemia = system: RPMI-8226 leukemia
RXF 393 renal = system: RXF 393 renal
SF-268 CNS = system: SF-268 CNS
SF-295 CNS = system: SF-295 CNS
SF-539 CNS = system: SF-539 CNS
SK-MEL-2 melanoma = system: SK-MEL-2 melanoma
SK-MEL-28 melanoma = system: SK-MEL-28 melanoma
SK-MEL-5 melanoma = system: SK-MEL-5 melanoma
SK-OV-3 ovarian = system: SK-OV-3 ovarian
SN12C renal = system: SN12C renal
SNB-19 CNS = system: SNB-19 CNS
SNB-75 CNS = system: SNB-75 CNS
SR leukemia = system: SR leukemia
SW-620 colon = system: SW-620 colon
T-47D breast = system: T-47D breast
TK-10 renal = system: TK-10 renal
U251 CNS = system: U251 CNS
UACC-62 melanoma = system: UACC-62 melanoma
UO-31 renal = system: UO-31 renal

Compound `COc1ccc(NC(=O)O[C@H]2[C@H](O[C@H]3[C@@H](O)COC(O[C@H]4C[C@H]5[C@@H]6CC=C7C[C@@H](O)CC[C@]7(C)[C@H]6CC[C@]5(C)[C@H]4[C@H](C)C(=O)CCC(C)C)[C@@H]3OC(C)=O)OC[C@@H](O)[C@@H]2O)cc1` (some centres undefined) has a GI50 (786-0 renal) of under 0.01 µM, a TGI (786-0 renal) of 11.3 µM and a GI50 (A498 renal) of under 0.01 µM. The TGI (A498 renal) was under 0.01 µM, the GI50 (A549 NSCLC) was under 0.01 µM and the TGI (A549 NSCLC) was 20.5 µM. The GI50 (ACHN renal) was 0.118 µM, the TGI (ACHN renal) was over 100 µM and the GI50 (BT-549 breast) was under 0.01 µM. It also gave a TGI (BT-549 breast) of 11.3 µM, a GI50 (CAKI-1 renal) of under 0.01 µM and a TGI (CAKI-1 renal) of 1.01 µM. It also gave a GI50 (CCRF-CEM leukemia) of under 0.01 µM, a TGI (CCRF-CEM leukemia) of 2.25 µM and a GI50 (COLO 205 colon) of 0.0105 µM. It also gave a TGI (COLO 205 colon) of 0.0363 µM, a GI50 (DU-145 prostate) of 0.367 µM and a TGI (DU-145 prostate) of 34.7 µM. It also gave a GI50 (EKVX NSCLC) of 0.349 µM, a TGI (EKVX NSCLC) of 11.2 µM and a GI50 (HCC-2998 colon) of 0.566 µM. For the same compound, the TGI (HCC-2998 colon) was 32.7 µM, the GI50 (HCT-116 colon) was under 0.01 µM and the TGI (HCT-116 colon) was 14.4 µM. For the same compound, the GI50 (HCT-15 colon) was 0.0735 µM, the TGI (HCT-15 colon) was 1.23 µM and the GI50 (HL-60(TB) leukemia) was 0.0139 µM. The TGI (HL-60(TB) leukemia) was 28.2 µM, the GI50 (HOP-62 NSCLC) was under 0.01 µM and the TGI (HOP-62 NSCLC) was 1.02 µM. For the same compound, the GI50 (HOP-92 NSCLC) was under 0.01 µM, the TGI (HOP-92 NSCLC) was 2.03 µM and the GI50 (HS 578T breast) was under 0.01 µM. The TGI (HS 578T breast) was 0.0116 µM, the GI50 (HT29 colon) was 0.0242 µM and the TGI (HT29 colon) was 15.5 µM. The GI50 (IGROV1 ovarian) was 0.0331 µM, the TGI (IGROV1 ovarian) was over 100 µM and the GI50 (K-562 leukemia) was under 0.01 µM. The TGI (K-562 leukemia) was 19.6 µM, the GI50 (KM12 colon) was 0.0323 µM and the TGI (KM12 colon) was 16.4 µM. For the same compound, the GI50 (LOX IMVI melanoma) was under 0.01 µM, the TGI (LOX IMVI melanoma) was under 0.01 µM and the GI50 (M14 melanoma) was under 0.01 µM. The TGI (M14 melanoma) was 0.0203 µM, the GI50 (MALME-3M melanoma) was 0.0115 µM and the TGI (MALME-3M melanoma) was 3.25 µM. The GI50 (MCF7 breast) was under 0.01 µM, the TGI (MCF7 breast) was 1.47 µM and the GI50 (MDA-MB-231 breast) was 0.318 µM. The TGI (MDA-MB-231 breast) was 19.2 µM, the GI50 (MDA-MB-435) was under 0.01 µM and the TGI (MDA-MB-435) was 0.0628 µM. For the same compound, the GI50 (MOLT-4 leukemia) was under 0.01 µM, the TGI (MOLT-4 leukemia) was 0.34 µM and the GI50 (NCI-H226 lung) was 0.0725 µM. For the same compound, the TGI (NCI-H226 lung) was 17.3 µM, the GI50 (NCI-H23 lung) was 0.0284 µM and the TGI (NCI-H23 lung) was 5.03 µM. For the same compound, the GI50 (NCI-H460 lung) was under 0.01 µM, the TGI (NCI-H460 lung) was 1.76 µM and the GI50 (NCI-H522 lung) was under 0.01 µM. It also gave a TGI (NCI-H522 lung) of 0.0759 µM, a GI50 (NCI/ADR-RES ovarian) of 3.78 µM and a TGI (NCI/ADR-RES ovarian) of over 100 µM. For the same compound, the GI50 (OVCAR-3 ovarian) was 1.11 µM, the TGI (OVCAR-3 ovarian) was 31.5 µM and the GI50 (OVCAR-4 ovarian) was 0.145 µM. For the same compound, the TGI (OVCAR-4 ovarian) was over 100 µM, the GI50 (OVCAR-5 ovarian) was 0.169 µM and the TGI (OVCAR-5 ovarian) was 26.2 µM. It also gave a GI50 (OVCAR-8 ovarian) of 7.75 µM, a TGI (OVCAR-8 ovarian) of over 100 µM and a GI50 (PC-3 prostate) of under 0.01 µM. The TGI (PC-3 prostate) was 4.87 µM, the GI50 (RPMI-8226 leukemia) was under 0.01 µM and the TGI (RPMI-8226 leukemia) was 0.879 µM. The GI50 (RXF 393 renal) was under 0.01 µM, the TGI (RXF 393 renal) was under 0.01 µM and the GI50 (SF-268 CNS) was under 0.01 µM. For the same compound, the TGI (SF-268 CNS) was 2.76 µM, the GI50 (SF-295 CNS) was under 0.01 µM and the TGI (SF-295 CNS) was under 0.01 µM. For the same compound, the GI50 (SF-539 CNS) was under 0.01 µM, the TGI (SF-539 CNS) was 0.0124 µM and the GI50 (SK-MEL-2 melanoma) was under 0.01 µM. For the same compound, the TGI (SK-MEL-2 melanoma) was 0.192 µM, the GI50 (SK-MEL-28 melanoma) was under 0.01 µM and the TGI (SK-MEL-28 melanoma) was 0.0127 µM. It also gave a GI50 (SK-MEL-5 melanoma) of under 0.01 µM, a TGI (SK-MEL-5 melanoma) of 0.0114 µM and a GI50 (SK-OV-3 ovarian) of 0.015 µM. For the same compound, the TGI (SK-OV-3 ovarian) was 3.71 µM, the GI50 (SN12C renal) was 11.4 µM and the TGI (SN12C renal) was over 100 µM. For the same compound, the GI50 (SNB-19 CNS) was 0.0189 µM, the TGI (SNB-19 CNS) was 3.36 µM and the GI50 (SNB-75 CNS) was under 0.01 µM. It also gave a TGI (SNB-75 CNS) of 6.88 µM, a GI50 (SR leukemia) of under 0.01 µM and a TGI (SR leukemia) of 29.9 µM. It also gave a GI50 (SW-620 colon) of under 0.01 µM, a TGI (SW-620 colon) of 0.0664 µM and a GI50 (T-47D breast) of under 0.01 µM. For the same compound, the TGI (T-47D breast) was 14.7 µM, the GI50 (TK-10 renal) was 0.0966 µM and the TGI (TK-10 renal) was 23.8 µM. It also gave a GI50 (U251 CNS) of under 0.01 µM, a TGI (U251 CNS) of 12.2 µM and a GI50 (UACC-62 melanoma) of under 0.01 µM. The TGI (UACC-62 melanoma) was under 0.01 µM, the GI50 (UO-31 renal) was 0.024 µM and the TGI (UO-31 renal) was 0.0978 µM.
